Reference: article PMC12656268, “Venom Peptides Across Asian and American Tarantulas Utilize Dual Pharmacology to Target Activation and Fast Inactivation of Voltage-Gated Sodium Channels” (Toxins, 2025)
“Also recorded” adds a separate entry of the source. Positions of bridges follow the written chain, without caps; N, C: chain ends. Residues, ends and D or L forms follow the SMILES beside them.

Experiments:
hNaV1.3 = hNaV1.3 (Homo sapiens, UniProt Q9NY46); experiment: hNaV1.3 peak current inhibition, automated whole-cell patch clamp (QPatch 16X); assay type: cell-based; details: for IC50: HEK293 + β1, holding −80 mV, 20 ms step to 0 mV from −120 mV 200 ms prepulse, 5 min incubation, mean ± SEM, 3 to 9 independent experiments, read-out: IC50, inhibition of peak current, NaV1.3
Procedure: (§1) Unless otherwise specified, all cell culture reagents were obtained from Life Technologies (Carlsbad, CA, USA). The human neuroblastoma cell line SH-SY5Y (ATCC CRL-2266; Manassas, VA, USA) was maintained in RPMI medium supplemented with 15% fetal bovine serum (FBS) and 2 mM L-glutamine. HEK293 cells stably expressing human NaV channel isoforms together with the β1 auxiliary subunit (SB Drug Discovery, Glasgow, UK) were propagated in Minimal Essential Medium (MEM; Sigma-Aldrich, St. Louis, MO, USA) containing 10% FBS, 100 U/mL penicillin, 100 µg/mL streptomycin, 2 mM L-glutamine, and selective antibiotics (blasticidin, geneticin, and zeocin) at concentrations recommended by the supplier. […]
(§2) Sodium channel currents were recorded from HEK293 cells expressing human NaV isoforms together with the β1 auxiliary subunit (SB Drug Discovery, Glasgow, UK) using the QPatch 16X automated whole-cell patch-clamp platform (Sophion Bioscience A/S, Ballerup, Denmark). […] For determining the potency of Oa1a peptides to inhibit peak current, the maximum peak current within the 20 ms at 0 mV was measured. For determining the potency of Oa1a-NH2 to slow fast inactivation, peak current values were measured at 20 ms of the 0 mV depolarization step. […]
(§3) For calcium influx experiments, bioactivity comparisons between venom fractions and controls were based on the difference between the maximal and minimal fluorescence intensity values obtained from single-replicate assays. […] Reversibility and dissociation kinetics were analyzed by fitting data with a single-phase exponential decay model, while voltage-dependence of steady-state activation and inactivation parameters were derived from Boltzmann sigmoid fits of normalized conductance (G/Gmax) or current (I/Imax) values to determine the half-activation or half-inactivation voltages (V50). Data are expressed as mean ± SEM, where n represents the number of individual cells analyzed.

hNaV1.4 = hNaV1.4 (Homo sapiens, UniProt P35499); experiment: hNaV1.4 peak current inhibition, automated whole-cell patch clamp (QPatch 16X); assay type: cell-based; details: for IC50: HEK293 + β1, holding −80 mV, 20 ms step to 0 mV from −120 mV 200 ms prepulse, 5 min incubation, mean ± SEM, 3 to 9 independent experiments, read-out: IC50, inhibition of peak current, NaV1.4
Procedure: as §1, §2, §3

hNaV1.6 = hNaV1.6 (Homo sapiens, UniProt Q9UQD0); experiment: hNaV1.6 peak current inhibition, automated whole-cell patch clamp (QPatch 16X); assay type: cell-based; details: for IC50: HEK293 + β1, holding −80 mV, 20 ms step to 0 mV from −120 mV 200 ms prepulse, 5 min incubation, mean ± SEM, 3 to 9 independent experiments, read-out: IC50, inhibition of peak current, NaV1.6
Procedure: as §1, §2, §3

CaV3.2 = experiment: hCaV3.2 (T-type) current, automated whole-cell patch clamp (QPatch 16X); assay type: cell-based, human; details: up to 10 μM tested; holding −90 mV, 60 ms steps to −30 mV from −120 mV 60 ms conditioning pulse; 5 min incubation; Figure S1
Procedure: Unless otherwise specified, all cell culture reagents were obtained from Life Technologies (Carlsbad, CA, USA). The human neuroblastoma cell line SH-SY5Y (ATCC CRL-2266; Manassas, VA, USA) was maintained in RPMI medium supplemented with 15% fetal bovine serum (FBS) and 2 mM L-glutamine. HEK293 cells stably expressing human NaV channel isoforms together with the β1 auxiliary subunit (SB Drug Discovery, Glasgow, UK) were propagated in Minimal Essential Medium (MEM; Sigma-Aldrich, St. Louis, MO, USA) containing 10% FBS, 100 U/mL penicillin, 100 µg/mL streptomycin, 2 mM L-glutamine, and selective antibiotics (blasticidin, geneticin, and zeocin) at concentrations recommended by the supplier. HEK293T cells expressing the human CaV3.2 channel (a generous gift from Prof. Emmanuel Bourinet, Institut de Génomique Fonctionnelle, Université de Montpellier, France, and Prof. Edward Perez-Reyes, University of Virginia School of Medicine, USA) were grown in Dulbecco’s MEM supplemented with 10% FBS, 100 U/mL penicillin, 100 µg/mL streptomycin, and 750 µg/mL geneticin.
CaV3.2 channel currents were recorded from HEK293 cells expressing hCaV3.2 using an automated QPatch 16X platform (Sophion Bioscience A/S). […]

NaV1.7 = experiment: Voltage dependence of steady-state inactivation and activation, NaV1.7; assay type: cell-based, human; details: for V50 of steady-state activation in presence of peptide, NaV1.7: control V50 = −28 ± 0.5 mV (sOa1a-NH2 experiment), −25 ± 0.7 mV (sOa1a-OH experiment); for V50 of steady-state activation in presence of peptide, NaV1.7 / V50 of steady-state inactivation in presence of peptide, NaV1.7: 5 min at IC50 concentration, mean ± SEM, 3 to 5 repeats; for V50 of steady-state inactivation in presence of peptide, NaV1.7: control V50 = −66 ± 0.7 mV (sOa1a-NH2 experiment), −66 ± 0.3 mV (sOa1a-OH experiment); for Effect on current–voltage relationships (activation, steady-state inactivation), NaV1.7: peptide at IC50 concentration
Procedure: The voltage dependence of steady-state activation was assessed by recording sodium currents evoked by depolarizing voltage steps ranging from −110 mV to +80 mV in 5 mV increments. Peak conductance (GNa) was derived using the equation G = I/(V − Vrev), where I denotes the measured current, V the applied membrane potential, and Vrev the sodium reversal potential. To evaluate the voltage dependence of steady-state fast inactivation, a two-pulse protocol was used. Cells were conditioned with 500 ms pre-pulses at potentials between −130 mV and −10 mV (10 mV increments), followed by a 20 ms test depolarization to 0 mV to elicit sodium currents. The steady-state fast inactivation currents were plotted as I/Imax, where I = current value and Imax = highest current value within the experiment. The voltage-dependence of steady-state activation and inactivation were determined either in the absence of peptide or following 5 min exposure to peptide at the respective IC50 concentration at the NaV subtype analyzed to streamline the investigation using an effective single concentration as previously described by us.
For calcium influx experiments, bioactivity comparisons between venom fractions and controls were based on the difference between the maximal and minimal fluorescence intensity values obtained from single-replicate assays. Electrophysiological data analysis was conducted using GraphPad Prism (version 8; GraphPad Software, San Diego, CA, USA). Nonlinear regression was applied to fit the concentration–response relationships using a variable Hill slope: log(inhibitor) versus normalized response for determining IC50 values, and log(agonist) versus normalized response for EC50 calculations. Reversibility and dissociation kinetics were analyzed by fitting data with a single-phase exponential decay model, while voltage-dependence of steady-state activation and inactivation parameters were derived from Boltzmann sigmoid fits of normalized conductance (G/Gmax) or current (I/Imax) values to determine the half-activation or half-inactivation voltages (V50). Data are expressed as mean ± SEM, where n represents the number of individual cells analyzed.

Sequence of hNaV1.4 (P35499 whole entry): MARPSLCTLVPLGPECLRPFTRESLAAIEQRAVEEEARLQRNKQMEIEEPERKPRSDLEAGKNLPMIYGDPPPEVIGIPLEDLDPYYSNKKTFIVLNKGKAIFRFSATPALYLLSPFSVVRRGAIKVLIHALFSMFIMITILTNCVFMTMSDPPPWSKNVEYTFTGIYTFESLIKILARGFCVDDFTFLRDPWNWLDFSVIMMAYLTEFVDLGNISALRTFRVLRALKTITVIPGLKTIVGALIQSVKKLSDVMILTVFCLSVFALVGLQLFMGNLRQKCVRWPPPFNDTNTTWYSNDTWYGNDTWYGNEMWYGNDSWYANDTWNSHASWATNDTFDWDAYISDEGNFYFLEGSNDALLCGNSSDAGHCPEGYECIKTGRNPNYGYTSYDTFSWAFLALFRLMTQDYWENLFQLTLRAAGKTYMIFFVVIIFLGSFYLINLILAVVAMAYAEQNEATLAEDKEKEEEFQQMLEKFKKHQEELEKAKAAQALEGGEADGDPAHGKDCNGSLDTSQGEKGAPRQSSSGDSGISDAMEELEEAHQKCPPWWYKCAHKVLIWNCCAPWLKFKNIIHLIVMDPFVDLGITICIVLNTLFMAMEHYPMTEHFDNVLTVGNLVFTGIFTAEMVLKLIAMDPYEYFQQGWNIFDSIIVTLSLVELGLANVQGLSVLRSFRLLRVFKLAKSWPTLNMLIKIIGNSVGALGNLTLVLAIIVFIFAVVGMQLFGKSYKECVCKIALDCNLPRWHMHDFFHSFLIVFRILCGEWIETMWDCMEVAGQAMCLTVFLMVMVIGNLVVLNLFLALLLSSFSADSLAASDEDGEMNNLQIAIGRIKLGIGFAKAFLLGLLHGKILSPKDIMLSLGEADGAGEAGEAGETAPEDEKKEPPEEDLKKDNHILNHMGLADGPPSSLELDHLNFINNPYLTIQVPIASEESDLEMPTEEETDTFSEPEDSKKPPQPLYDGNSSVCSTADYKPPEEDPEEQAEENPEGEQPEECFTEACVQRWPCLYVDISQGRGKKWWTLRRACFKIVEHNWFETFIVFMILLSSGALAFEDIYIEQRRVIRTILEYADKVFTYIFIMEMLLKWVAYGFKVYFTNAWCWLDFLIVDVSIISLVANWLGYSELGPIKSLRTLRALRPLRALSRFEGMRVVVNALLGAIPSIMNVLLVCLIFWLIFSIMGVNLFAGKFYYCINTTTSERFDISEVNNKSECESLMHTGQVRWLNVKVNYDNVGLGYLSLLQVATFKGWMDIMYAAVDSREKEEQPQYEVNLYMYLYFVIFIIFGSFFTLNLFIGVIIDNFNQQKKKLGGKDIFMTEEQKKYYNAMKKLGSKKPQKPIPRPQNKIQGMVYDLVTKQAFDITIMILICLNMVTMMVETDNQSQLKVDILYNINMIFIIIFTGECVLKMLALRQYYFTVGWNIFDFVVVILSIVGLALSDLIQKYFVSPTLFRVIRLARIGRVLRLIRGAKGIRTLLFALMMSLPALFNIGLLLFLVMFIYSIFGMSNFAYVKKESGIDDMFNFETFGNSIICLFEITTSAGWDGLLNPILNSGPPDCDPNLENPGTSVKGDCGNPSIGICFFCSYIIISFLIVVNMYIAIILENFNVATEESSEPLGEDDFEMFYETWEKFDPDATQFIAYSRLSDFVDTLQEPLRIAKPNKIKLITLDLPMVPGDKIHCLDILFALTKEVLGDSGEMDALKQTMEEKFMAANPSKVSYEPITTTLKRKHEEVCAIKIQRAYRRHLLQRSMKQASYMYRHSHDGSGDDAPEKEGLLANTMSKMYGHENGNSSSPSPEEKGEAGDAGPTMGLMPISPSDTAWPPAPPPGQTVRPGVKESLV
Sequence of hNaV1.4 (Q07699 19-218, further chain): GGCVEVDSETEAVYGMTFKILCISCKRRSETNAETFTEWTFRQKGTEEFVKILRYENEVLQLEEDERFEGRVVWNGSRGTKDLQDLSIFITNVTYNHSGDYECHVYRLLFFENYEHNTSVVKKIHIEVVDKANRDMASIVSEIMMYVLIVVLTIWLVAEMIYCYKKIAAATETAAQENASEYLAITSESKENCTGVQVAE
Sequence of hNaV1.3 (Q9NY46 whole entry, canonical isoform): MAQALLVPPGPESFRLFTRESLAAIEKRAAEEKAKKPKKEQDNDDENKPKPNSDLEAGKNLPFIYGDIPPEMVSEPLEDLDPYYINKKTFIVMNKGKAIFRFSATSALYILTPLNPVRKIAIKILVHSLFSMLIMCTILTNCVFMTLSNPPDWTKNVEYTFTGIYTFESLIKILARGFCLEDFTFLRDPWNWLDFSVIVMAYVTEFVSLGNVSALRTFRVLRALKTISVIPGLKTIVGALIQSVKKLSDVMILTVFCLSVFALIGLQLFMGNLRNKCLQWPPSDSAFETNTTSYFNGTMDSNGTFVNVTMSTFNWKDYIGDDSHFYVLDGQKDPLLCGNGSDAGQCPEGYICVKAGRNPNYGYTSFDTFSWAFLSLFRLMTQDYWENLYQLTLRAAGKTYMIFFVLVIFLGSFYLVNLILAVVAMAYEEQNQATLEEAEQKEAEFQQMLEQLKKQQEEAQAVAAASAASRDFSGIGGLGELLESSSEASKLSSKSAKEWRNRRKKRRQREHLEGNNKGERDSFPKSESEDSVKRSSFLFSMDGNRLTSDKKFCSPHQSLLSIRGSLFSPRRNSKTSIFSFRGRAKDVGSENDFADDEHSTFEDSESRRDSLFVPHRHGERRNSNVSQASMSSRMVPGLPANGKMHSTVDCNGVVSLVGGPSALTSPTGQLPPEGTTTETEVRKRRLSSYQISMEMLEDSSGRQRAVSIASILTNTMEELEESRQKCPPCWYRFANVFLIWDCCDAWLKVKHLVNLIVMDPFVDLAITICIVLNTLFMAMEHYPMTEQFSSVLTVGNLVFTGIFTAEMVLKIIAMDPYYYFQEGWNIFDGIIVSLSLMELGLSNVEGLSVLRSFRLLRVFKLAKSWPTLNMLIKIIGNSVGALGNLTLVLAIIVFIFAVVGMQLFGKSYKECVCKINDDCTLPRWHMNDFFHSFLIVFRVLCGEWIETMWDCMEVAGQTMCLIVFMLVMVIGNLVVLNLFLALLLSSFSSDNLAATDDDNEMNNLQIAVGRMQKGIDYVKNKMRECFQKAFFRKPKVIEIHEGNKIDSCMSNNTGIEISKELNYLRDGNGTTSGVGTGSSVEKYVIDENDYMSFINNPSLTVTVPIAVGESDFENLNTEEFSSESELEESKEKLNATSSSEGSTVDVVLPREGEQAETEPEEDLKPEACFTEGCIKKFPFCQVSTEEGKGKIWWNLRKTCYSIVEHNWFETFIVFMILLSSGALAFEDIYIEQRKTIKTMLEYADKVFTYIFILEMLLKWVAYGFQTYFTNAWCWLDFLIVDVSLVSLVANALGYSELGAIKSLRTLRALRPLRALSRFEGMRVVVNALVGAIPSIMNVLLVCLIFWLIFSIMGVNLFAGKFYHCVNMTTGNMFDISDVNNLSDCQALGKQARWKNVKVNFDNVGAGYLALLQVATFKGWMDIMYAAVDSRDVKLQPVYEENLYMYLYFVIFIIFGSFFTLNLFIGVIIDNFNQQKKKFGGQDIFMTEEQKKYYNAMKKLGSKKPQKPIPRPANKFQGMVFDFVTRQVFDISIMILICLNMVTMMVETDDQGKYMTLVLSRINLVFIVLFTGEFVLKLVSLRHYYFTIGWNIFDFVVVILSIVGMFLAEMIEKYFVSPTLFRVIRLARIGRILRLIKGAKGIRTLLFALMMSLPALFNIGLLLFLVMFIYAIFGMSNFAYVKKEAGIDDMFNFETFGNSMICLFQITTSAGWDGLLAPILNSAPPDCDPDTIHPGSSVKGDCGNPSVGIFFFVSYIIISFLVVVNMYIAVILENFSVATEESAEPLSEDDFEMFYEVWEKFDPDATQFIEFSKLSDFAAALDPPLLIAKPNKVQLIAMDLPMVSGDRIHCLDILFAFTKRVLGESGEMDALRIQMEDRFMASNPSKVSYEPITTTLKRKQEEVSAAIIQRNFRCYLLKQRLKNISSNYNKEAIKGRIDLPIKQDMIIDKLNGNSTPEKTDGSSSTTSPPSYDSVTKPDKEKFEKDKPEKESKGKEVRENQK
Sequence of hNaV1.3 (Q07699 19-218, further chain): as the sequence (Q07699 19-218, further chain) above

Compound | IC50 (hNaV1.3) [nM] | IC50 (hNaV1.4) [nM] | IC50 (hNaV1.6) [nM] | Activity on CaV3.2 (CaV3.2) | V50 of steady-state activation in presence of peptide, NaV1.7 (NaV1.7) [mV] | V50 of steady-state inactivation in presence of peptide, NaV1.7 (NaV1.7) [mV] | Effect on current–voltage relationships (activation, steady-state inactivation), NaV1.7 (NaV1.7) | Activity on NaV1.3 (in words) (hNaV1.3; tested at up to 3 μM) | Activity on NaV1.4 (in words) (hNaV1.4; tested at up to 3 μM) | Ratio OH/NH2 (IC50 sOa1a-OH / IC50 sOa1a-NH2), NaV1.6 (hNaV1.6; ratio of IC50 values)
CC(C)C[C@@H]1NC(=O)[C@H](Cc2ccccc2)NC(=O)[C@H](Cc2ccc(O)cc2)NC(=O)[C@H](CCCNC(=N)N)NC(=O)[C@@H](NC(=O)[C@@H](N)CCC(=O)O)CSSC[C@@H]2NC(=O)[C@@H]3CSSC[C@@H](C(=O)N[C@H](C(=O)N[C@@H](Cc4c[nH]c5ccccc45)C(=O)N[C@@H](CC(=O)O)C(=O)N[C@@H](Cc4c[nH]c5ccccc45)C(=O)N[C@H](C(=O)N[C@@H](Cc4ccccc4)C(N)=O)[C@@H](C)O)C(C)C)NC(=O)[C@H](Cc4c[nH]c5ccccc45)NC(=O)[C@H](CCC(N)=O)NC(=O)[C@H](Cc4c[nH]cn4)NC(=O)[C@H](CCCCN)NC(=O)[C@H](CC(N)=O)NC(=O)[C@H](Cc4c[nH]cn4)NC(=O)[C@H](CSSC[C@H](NC(=O)CNC(=O)CNC1=O)C(=O)N[C@@H](CO)C(=O)N[C@@H](CCC(N)=O)C(=O)NCC(=O)N[C@@H](CCC(=O)O)C(=O)N[C@@H](CCCCN)C(=O)N3)NC(=O)[C@H](C(C)C)NC(=O)[C@H](CC(C)C)NC(=O)[C@H](Cc1c[nH]cn1)NC(=O)[C@H](CCC(=O)O)NC2=O [sOa1a-NH2] (H-ECRYFLGGCSQGEKCCEHLVCHNKHQWCVWDWTF-NH2; disulfide 2-16, 9-21, 15-28; N-terminus assumed) | 162 ± 8 | 2290 ± 77 | 223 ± 18 | did not observe activity | −30 | −69 | remained nearly unaltered; also recorded: did not alter the voltage of activation or the steady-state inactivation |  |  | 
CC(C)C[C@@H]1NC(=O)[C@H](Cc2ccccc2)NC(=O)[C@H](Cc2ccc(O)cc2)NC(=O)[C@H](CCCNC(=N)N)NC(=O)[C@@H](NC(=O)[C@@H](N)CCC(=O)O)CSSC[C@@H]2NC(=O)[C@@H]3CSSC[C@@H](C(=O)N[C@H](C(=O)N[C@@H](Cc4c[nH]c5ccccc45)C(=O)N[C@@H](CC(=O)O)C(=O)N[C@@H](Cc4c[nH]c5ccccc45)C(=O)N[C@H](C(=O)N[C@@H](Cc4ccccc4)C(=O)O)[C@@H](C)O)C(C)C)NC(=O)[C@H](Cc4c[nH]c5ccccc45)NC(=O)[C@H](CCC(N)=O)NC(=O)[C@H](Cc4c[nH]cn4)NC(=O)[C@H](CCCCN)NC(=O)[C@H](CC(N)=O)NC(=O)[C@H](Cc4c[nH]cn4)NC(=O)[C@H](CSSC[C@H](NC(=O)CNC(=O)CNC1=O)C(=O)N[C@@H](CO)C(=O)N[C@@H](CCC(N)=O)C(=O)NCC(=O)N[C@@H](CCC(=O)O)C(=O)N[C@@H](CCCCN)C(=O)N3)NC(=O)[C@H](C(C)C)NC(=O)[C@H](CC(C)C)NC(=O)[C@H](Cc1c[nH]cn1)NC(=O)[C@H](CCC(=O)O)NC2=O [sOa1a-OH] (H-ECRYFLGGCSQGEKCCEHLVCHNKHQWCVWDWTF-OH; disulfide 2-16, 9-21, 15-28; N-terminus assumed) | > 3000 | > 3000 | 568 ± 38 | did not observe activity | −22 | −71 | remained nearly unaltered | no activity | no activity | 2.6
